Data taken from article PMC5698723, “Oxetane Grafts Installed Site‐Selectively on Native Disulfides to Enhance Protein Stability and Activity In Vivo” (Angewandte Chemie (International Ed. in English), 2017).

Key:
[1] = Stability of stapled cyclic peptides in human plasma; assay type: in vitro ADME; details: around 1 mM peptide in H2O (100 µL) + 1 µL reconstituted human plasma, 37 °C, 48 h, HPLC read-out (212 nm)
Procedure: 6. Stability test of stapled cyclic peptides […]
(§1) 27), 15 min, λ = 212nm, flow=3.5)]. […]
A 100 µL aliquot of stapled peptide (around 1 mM) in H2O was treated with 1 µL of
reconstituted human plasma (Sigma-Aldrich) and the resulting mixture vortexed for 30 s and
then shaken at 37 °C. After 48 h, an aliquot of each reaction mixture was analysed by HPLC
(YMC-Pack Pro C18 column (5 µ, 250 mm × 10 mm), isocratic: acetonitrile+0.1% TFA
(§2) /water+0.1% TFA (73-27), 15 min, λ = 212nm, flow=3.5)).

[2] = Stability of stapled cyclic peptides in GSH solution; assay type: physicochemical; details: around 1 mM peptide in H2O, 1 mM GSH, 37 °C, 48 h, HPLC read-out (212 nm)
Procedure: 6. Stability test of stapled cyclic peptides
A 100 µL aliquot of stapled peptide (around 1 mM) in H2O was treated with 5.3 µL of a 20 mM GSH solution (to 1 mM) and the resulting mixture vortexed for 30 s and then shaken at 37 °C. After 48 h, an aliquot of each reaction mixture was analysed by HPLC [YMC-Pack Pro C18 column (5 µ, 250 mm × 10 mm), isocratic: acetonitrile+0.1% TFA /water+0.1% TFA (73- […]
as §1
(YMC-Pack Pro C18 column (5 µ, 250 mm × 10 mm), isocratic: acetonitrile+0.1% TFA […]
as §2

Compound	stability in human plasma [1]	stability in the presence of glutathione (GSH) [2]
C[C@H](N)C(=O)NCC(=O)N[C@H]1CSCC2(COC2)CSC[C@@H](C(=O)O)NC(=O)[C@H](CO)NC(=O)[C@H]([C@@H](C)O)NC(=O)[C@H](Cc2ccccc2)NC(=O)[C@H]([C@@H](C)O)NC(=O)[C@H](CCCCN)NC(=O)[C@H](Cc2c[nH]c3ccccc23)NC(=O)[C@H](Cc2ccccc2)NC(=O)[C@H](Cc2ccccc2)NC(=O)[C@H](CC(N)=O)NC(=O)[C@H](CCCCN)NC1=O [compound 3]	remain intact	remain intact
C[C@@H](O)[C@@H]1NC(=O)[C@H](CCCCN)NC(=O)[C@@H](Cc2c[nH]c3ccccc23)NC(=O)[C@H](Cc2ccccc2)NC(=O)[C@@H](NC(=O)[C@H](N)Cc2ccccc2)CSCC2(COC2)CSC[C@@H](C(=O)N[C@H](CO)[C@@H](C)O)NC1=O [compound 5]	remain intact	remain intact
